± gives the standard deviation.
How the values were obtained:
[1] = chemical recovery from spiked human plasma; higher = better extraction; details: pooled human plasma
[2] = chemical recovery into PDMS from spiked human plasma; higher = better extraction; details: pooled human plasma, extraction method: PES with PDMS
[3] = chemical recovery by SPE of plasma after PDMS sampling; higher = better extraction; details: pooled human plasma, extraction method: HLB SPE of plasma after PES
[4] = extraction method: SPE only (HLB 96-well), PES comparison experiment
[5] = extraction method: solvent precipitation (ACN + hexane)
[6] = extraction method: SPE only (HLB 96-well)
[7] = extraction method: PES+SPE (3 d PDMS equilibration then HLB SPE)
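Throughout, for chemical recovery by SPE of plasma after PDMS sampling: over 400 spiked chemicals quantified by LC-HRMS or GC-HRMS via internal standard calibration, recovery relative to spike mix added to unspiked plasma extract to correct matrix effects.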

| Structure (SMILES) | chemical recovery [1, 4] [%] | chemical recovery [1, 5] [%] | chemical recovery into PDMS ([2]; equilibration time (d): 3) [%] | chemical recovery into PDMS ([2]; equilibration time (d): 6) [%] | chemical recovery [1, 6] [%] | chemical recovery into PDMS ([2]; equilibration time (d): 1) [%] | chemical recovery [1, 7] [%] | chemical recovery by SPE of plasma ([3]; equilibration time (d): 1) [%] | chemical recovery by SPE of plasma ([3]; equilibration time (d): 3) [%] | chemical recovery by SPE of plasma ([3]; equilibration time (d): 6) [%] |
| --- | --- | --- | --- | --- | --- | --- | --- | --- | --- | --- |
| Cl[C@H]1[C@H](Cl)[C@@H](Cl)[C@@H](Cl)[C@H](Cl)[C@H]1Cl [gamma-HCH] | 9.76 ± 0.99 | 26.2 ± 8.1 | 57.4 ± 18 | 58.6 ± 18 |  |  |  |  |  |  |
| CO/N=C(/C(=O)OC)c1ccccc1CO/N=C(\C)c1cccc(C(F)(F)F)c1 [Trifloxystrobin] | 45.4 ± 8.7 |  | 47.8 ± 5.8 | 47.3 ± 3.1 | 48 ± 6.8 | 47.2 ± 4.1 |  |  |  |  |
| Cc1ccc(OP(=O)(Oc2ccc(C)cc2)Oc2ccc(C)cc2)cc1 [Tricresylphosphate] | 25.4 ± 4.9 |  | 56.1 ± 5.2 | 54 ± 3.2 | 44.8 ± 12 | 54.2 ± 6.3 |  |  |  |  |
| CC(C)(C)C(O)C(Oc1ccc(Cl)cc1)n1cncn1 (stereo not given) [Triadimenol] | 47.4 ± 7.7 | 68.9 ± 3.2 | 43.5 ± 3.8 | 43.6 ± 0.11 |  | 39.4 ± 1.5 |  |  |  |  |
| CC1=CC(=O)CC(C)(C)C1 [Isophorone] |  |  |  |  | 0.623 ± 0.28 | 4.8 ± 8.3 |  |  |  |  |
| Cl[C@H]1[C@H](Cl)[C@@H](Cl)[C@H](Cl)[C@H](Cl)[C@H]1Cl [alpha-HCH] | 25.5 ± 5.6 |  | 69.9 ± 18 | 66.1 ± 14 |  | 56.7 ± 14 |  |  |  |  |
| O=C(Nc1ccc(F)cc1)c1cccc(Oc2cccc(C(F)(F)F)c2)n1 [Picolinafen] | 28.9 ± 6 | 69.8 ± 6 | 54.1 ± 5.5 | 50.4 ± 4.1 | 49.3 ± 14 | 50.6 ± 4.7 |  |  |  |  |
| CC(=O)[C@@]1(O)CC[C@H]2[C@@H]3CCC4=CC(=O)CC[C@]4(C)[C@H]3CC[C@@]21C [17alpha-Hydroxyprogesterone] | 51.1 ± 7.7 |  | 12.2 ± 1.3 | 13.1 ± 1.1 |  | 7.94 ± 0.8 |  |  |  |  |
| CC1(C)[C@H](C=C(Cl)Cl)[C@H]1C(=O)OCc1c(F)c(F)cc(F)c1F [Transfluthrin] | 13.8 ± 3.7 | 31.9 ± 2.4 | 113 ± 37 | 92.7 ± 12 | 0.85 ± 0.086 | 79.7 ± 14 |  |  |  |  |
| CC(C)c1ccc2sc3ccccc3c(=O)c2c1 [2-Isopropylthioxanthone] | 19.8 ± 4.6 |  | 48.5 ± 4.6 | 46.7 ± 2.5 | 33.5 ± 9.6 | 45.3 ± 4.8 |  |  |  |  |
| Cl[C@H]1[C@H](Cl)[C@@H](Cl)[C@H](Cl)[C@@H](Cl)[C@@H]1Cl [beta-HCH] | 26.6 ± 2.1 | 33.3 ± 5.6 | 80.5 ± 10 | 77.1 ± 5.9 |  |  | 192 ± 11 |  |  |  |
| CC(C)(C)c1ccc(CSc2cnn(C(C)(C)C)c(=O)c2Cl)cc1 [Pyridaben] |  |  | 49.7 ± 3.6 | 49.4 ± 2.4 | 7.91 ± 1.1 | 50.4 ± 7.5 |  |  |  |  |
| CCCCCCCCn1sc(Cl)c(Cl)c1=O [DCOIT] |  |  | 3.03 ± 5.2 | 5.33 ± 4.6 | 27.3 ± 3.7 | 25.7 ± 3.8 |  |  |  |  |
| Clc1ccc(C(c2ccc(Cl)cc2)C(Cl)Cl)cc1 [4,4-DDD] |  |  | 1.42 ± 0.086 | 1.39 ± 0.11 |  | 1.61 ± 0.67 |  |  |  |  |
| CN(C)C(=N)NC(=N)N [Metformin] |  | 83.3 ± 12 |  | 0.002 ± 0.0035 | 2.12 ± 0.71 |  | 1.5 ± 0.32 |  |  |  |
| CCOP(=S)(OCC)SCSP(=S)(OCC)OCC [Ethion] | 31.7 ± 5.8 |  | 47.4 ± 4.3 | 46.7 ± 1.1 | 37.2 ± 9.9 | 48.1 ± 8.9 |  |  |  |  |

| Structure (SMILES) | chemical recovery [1, 4] [%] | chemical recovery [1, 5] [%] | chemical recovery into PDMS ([2]; equilibration time (d): 3) [%] | chemical recovery into PDMS ([2]; equilibration time (d): 6) [%] | chemical recovery [1, 6] [%] | chemical recovery into PDMS ([2]; equilibration time (d): 1) [%] | chemical recovery [1, 7] [%] | chemical recovery by SPE of plasma ([3]; equilibration time (d): 1) [%] | chemical recovery by SPE of plasma ([3]; equilibration time (d): 3) [%] | chemical recovery by SPE of plasma ([3]; equilibration time (d): 6) [%] |
| --- | --- | --- | --- | --- | --- | --- | --- | --- | --- | --- |
| O=C1C2CC3C1C1(Cl)C(Cl)C4(Cl)C2C3C1(Cl)C4(Cl)Cl (stereo not given) [Endrinketone] |  |  | 90.3 ± 7 | 87.5 ± 2.9 |  | 75.4 ± 13 |  |  |  |  |
| O=C(O)C(F)(F)C(F)(F)C(F)(F)C(F)(F)C(F)(F)C(F)(F)F [Perfluoroheptanoic acid] | 39.8 ± 8.7 | 85.3 ± 16 | 0.00647 ± 0.017 | 0.0383 ± 0.0028 | 27.1 ± 4.2 | 0.0266 ± 0.023 | 34.1 ± 2.9 |  |  |  |
| O=S(=O)(c1ccc(Cl)cc1)c1ccc(Cl)cc1 [Bis(4-chlorophenyl)sulfone] |  |  |  | 39.6 ± 14 | 4.65 ± 1.5 | 41.4 ± 2.9 |  |  |  |  |
| CCCCOP(=O)(O)OCCCC [Di-n-butyl phosphate] |  | 67.8 ± 3.6 | 31.1 ± 3.2 | 30.9 ± 1.4 | 33.5 ± 3.3 | 25.9 ± 1.5 | 42.2 ± 5 |  |  |  |
| CC(C)N(C(=O)SCC(Cl)=C(Cl)Cl)C(C)C [Triallate] | 22.8 ± 6.1 | 76.8 ± 11 | 32.2 ± 4 | 29.8 ± 1.9 | 16.3 ± 5 | 29 ± 1.7 |  |  |  |  |
| Nc1ccccc1-c1ccccc1 [2-Aminobiphenyl] | 27.7 ± 4.4 | 2.86 ± 5 | 14 ± 7.3 |  | 22.6 ± 0.6 | 14.2 ± 6.8 | 17.3 ± 3.9 |  |  |  |
| CC=CC(=O)N(CC)c1ccccc1C [Crotamiton] | 36.1 ± 7.8 | 56.3 ± 3.9 |  | 36.1 ± 0.56 | 37 ± 4.8 |  |  |  |  |  |
| CC1C(C)(C)C2=C(C(=O)CCC2)C1(C)C (stereo not given) [Cashmeran] | 2.88 ± 2 |  | 23.2 ± 9.8 | 17.8 ± 2.9 |  | 20.3 ± 6.3 |  |  |  |  |
| CCC(=O)OCC(=O)[C@@]1(OC(=O)CC)[C@@H](C)C[C@H]2[C@@H]3CCC4=CC(=O)C=C[C@]4(C)[C@@]3(F)[C@@H](O)C[C@@]21C [Betamethasone dipropionate] | 39.3 ± 5.3 |  | 44 ± 1.3 | 45.4 ± 3.2 |  | 42.4 ± 3 |  |  |  |  |
| CCCN(CC)CC1COC2(CCC(C(C)(C)C)CC2)O1 (stereo not given) [Spiroxamine] | 43.7 ± 7.8 |  |  |  | 47.5 ± 0.85 |  | 0.223 ± 0.025 | 0.0924 ± 0.066 | 0.0829 ± 0.053 | 0.0434 ± 0.0086 |
| Oc1ccccc1-c1ccccc1 [2-Phenylphenol] |  |  |  |  | 19.9 ± 4.2 |  |  | 4.5 ± 4 | 3.47 ± 0.42 | 3.11 ± 1.4 |
| NS(=O)(=O)c1cc(C(=O)O)c(NCc2ccco2)cc1Cl [Furosemide] | 50 ± 6.5 | 69.3 ± 6.1 |  |  | 48.4 ± 7.2 |  | 44.9 ± 5.1 | 55.5 ± 12 | 70.9 ± 4.3 | 66.2 ± 5.9 |
| NCC1(CC(=O)O)CCCCC1 [Gabapentin] | 0.0969 ± 0.19 |  |  |  | 14.7 ± 7.2 |  |  |  |  | 0.00483 ± 0.0084 |
| COc1c(C)c2c(c(O)c1C/C=C(\C)CCC(=O)O)C(=O)OC2 [Mycophenolic acid] | 53.5 ± 4.5 | 70.9 ± 5.3 |  |  | 45.5 ± 3.8 |  | 44.01 ± 0.38 | 48.6 ± 4.3 | 53 ± 2.7 | 46.3 ± 2 |
| CCOC(=O)[C@H](CCc1ccccc1)N[C@@H](C)C(=O)N1CCC[C@H]1C(=O)O [Enalapril] | 37.8 ± 5.6 | 70.5 ± 3.8 |  |  | 36.2 ± 1.4 |  | 42.2 ± 3.9 | 43.2 ± 7.6 | 47 ± 2.3 | 44.9 ± 4.6 |
| CC(C(=O)O)c1cccc(C(=O)c2ccccc2)c1 (stereo not given) [Ketoprofen] | 53.1 ± 4.2 | 68.4 ± 3.2 |  |  | 46.1 ± 2.4 |  | 56.1 ± 6 | 47.5 ± 5.5 | 54 ± 2.6 | 48.2 ± 2.2 |
